Reference: US6737383B1, “Herbicidal oxadiazolidines” (priority 1999, dated 2004)

What was measured:
Russian thistle = experiment: Test E Russian thistle; assay type: in vivo, Salsola kali; details: Postemergence
Experimental: […] A mixture of sandy loam soil and greenhouse potting mix in a 60:40 ratio was used for the postemergence test.
(§1) Plantings of these crops and weed species were adjusted to produce plants of appropriate size for the postemergence test. All plant species were grown using normal greenhouse practices. Crop and weed species include annual bluegrass (Poa annua), blackgrass (Alopecurus myosuroides), black nightshade (Solanum nigra), chickweed (Stellaria media), common poppy (Papaver rhoeas), deadnettle (Lamium amplexicaule), downy brome (Bromus tectorum), field violet (Viola arvensis), galium (Galium aparine), green foxtail (Setaria viridis), Italian ryegrass (Lolium multiflorum), jointed goatgrass (Aegilops cylindrica), kochia (Kochia scoparia), lambsquarters (Chenopodium album), littleseed canarygrass (Phalaris minor), rape (Brassica napus), redroot pigweed (Amaranthus retroflexus), Russian thistle (Salsola kali), scentless chamomile (Matricaria inodora), spring barley (Hordeum vulgare), sugar beet (Beta vulgaris), sunflower (Helianthus annuus), ivyleaf speedwell (Veronica hederaefolia), spring wheat (Triticum aestivum), winter wheat (Triticum aestivum), wild buckwheat (Polygonum convolvulus), wild mustard (Sinapis arvensis), wild oat (Avena fatua), windgrass (Apera spica-venti) and winter barley (Hordeum vulgare).
(§2) Treated plants and untreated controls were maintained in a greenhouse for approximately 21 to 28 days, after which all treated plants were compared to untreated controls and visually evaluated. […] A dash response (-) means no test result.

littleseed canarygrass = experiment: Test E littleseed canarygrass; assay type: in vivo, Phalaris minor; details: Preemergence
kochia = experiment: Test E kochia; assay type: in vivo, Kochia scoparia; details: Postemergence
Experimental: (§3) Compounds evaluated in this test were formulated in a non-phytotoxic solvent mixture which included a surfactant and applied to plants that were in the 1- to 4-leaf stage (postemergence application). A mixture of sandy loam soil and greenhouse potting mix in a 60:40 ratio was used for the postemergence test.
as §1, §2

spring wheat = experiment: Test E spring wheat; assay type: in vivo, Triticum aestivum; details: Postemergence
Experimental: as §3, §1, §2

purple nutsedge = experiment: Test C postemergence purple nutsedge; assay type: in vivo, Cyperus rotundus; details: 0 to 100 scale, 0 no effect, 100 complete control
In short: (§4)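 Scores (0 = no effect, 100 = complete control) come from visual comparison with untreated controls after about 14–21 days. Spray formulation was a non-phytotoxic solvent mixture including surfactant; plants grew in a 60:40 sandy loam–potting mix blend.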

redroot pigweed = experiment: Test C postemergence redroot pigweed; assay type: in vivo, Amaranthus retroflexus; details: 0 to 100 scale, 0 no effect, 100 complete control
Experimental: as §3, with “grown for various periods of time before treatment” for “in the 1- to 4-leaf stage”
(§5) Plantings of these crops and weed species were adjusted to produce plants of appropriate size for the postemergence test. All plant species were grown using normal greenhouse practices. Crop and weed species include arrowleaf sida (Sida rhombifolia), barnyardgrass (Echinochloa crus-galli), cocklebur (Xanthium strumarium), common ragweed (Ambrosia elatior), corn (Zea mays), cotton (Gossypium hirsutum), eastern black nightshade (Solanum ptycanthum), fall panicum (Panicum dichotomiflorum), field bindweed (Convolvulus arvensis), giant foxtail (Setaria faberii), hairy beggarticks (Bidens pilosa), ivyleaf morningglory (Ipomoea hederacea), johnsongrass (Sorghum halepense), ladysthumb smartweed (Polygonum persicaria), lambsquarters (Chenopodium album), large crabgrass (Digitaria sanguinalis), purple nutsedge (Cyperus rotundus), redroot pigweed (Amaranthus retroflexus), soybean (Glycine max), surinam grass (Brachiaria decumbens), velvetleaf (Abutilon theophrasti) and wild poinsettia (Euphorbia heterophylla).
(§6) Treated plants and untreated controls were maintained in a greenhouse for approximately 14, to 21 days, after which all treated plants were compared to untreated controls and visually evaluated. Plant response ratings, summarized in Table C, were based upon a 0 to 100 scale where 0 was no effect and 100 was complete control. A dash response (−) means no test result.

sugar beet = experiment: Test E sugar beet; assay type: in vivo, Beta vulgaris; details: Postemergence
In short: (§7)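 Plants were grown under normal greenhouse practice; for postemergence, in sandy loam soil mixed 60:40 with potting mix, treated at the 1- to 4-leaf stage. The compound was in a non-phytotoxic solvent carrying a surfactant. After roughly 21 to 28 days plants were scored visually against untreated plants.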

wild poinsettia = experiment: Test C postemergence wild poinsettia; assay type: in vivo, Euphorbia heterophylla; details: 0 to 100 scale, 0 no effect, 100 complete control
In short: as §4

surinam grass = experiment: Test C postemergence surinam grass; assay type: in vivo, Brachiaria decumbens; details: 0 to 100 scale, 0 no effect, 100 complete control
Experimental: as §3, with “grown for various periods of time before treatment” for “in the 1- to 4-leaf stage”
as §5, §6

chickweed = experiment: Test E chickweed; assay type: in vivo, Stellaria media; details: Postemergence
In short: as §7

deadnettle = experiment: Test E deadnettle; assay type: in vivo, Lamium amplexicaule; details: Preemergence
eastern black nightshade = experiment: Test C postemergence eastern black nightshade; assay type: in vivo, Solanum ptycanthum; details: 0 to 100 scale, 0 no effect, 100 complete control
In short: as §4

wild mustard = experiment: Test E wild mustard; assay type: in vivo, Sinapis arvensis; details: Preemergence
large crabgrass = experiment: Test C postemergence large crabgrass; assay type: in vivo, Digitaria sanguinalis; details: 0 to 100 scale, 0 no effect, 100 complete control
In short: as §4

lambsquarters = experiment: Test E lambsquarters; assay type: in vivo, Chenopodium album; details: Preemergence
annual bluegrass = experiment: Test E annual bluegrass; assay type: in vivo, Poa annua; details: Preemergence
blackgrass = experiment: Test E blackgrass; assay type: in vivo, Alopecurus myosuroides; details: Postemergence
In short: as §7

[1] = Rate 250 g/ha, 0 to 100 scale (0 no effect, 100 complete control)
[2] = Rate 62 g/ha, 0 to 100 scale, 0 no effect, 100 complete control
[3] = Rate 125 g/ha, 0 to 100 scale (0 no effect, 100 complete control)
[4] = Rate 500 g/ha, 0 to 100 scale, 0 no effect, 100 complete control
[5] = Rate 500 g/ha, 0 to 100 scale where 0 is no effect and 100 is complete control

CCn1c(=O)on(C(=O)N(c2ccc(F)cc2)C(C)C)c1=O [Compound 107]
Plant response rating, Russian thistle (Russian thistle; Rate 62 g/ha, 0 to 100 scale): 0 | Plant response rating, Russian thistle (Russian thistle; Rate 125 g/ha, 0 to 100 scale): 0 | Plant response rating, Russian thistle (Russian thistle; [1]): 0 | Plant response rating, LS canarygrass (littleseed canarygrass; [2]): 50 | Plant response rating, LS canarygrass (littleseed canarygrass; [3]): 80 | Plant response rating, LS canarygrass (littleseed canarygrass; Rate 250 g/ha, 0 to 100 scale): 80 | Plant response rating, Kochia (kochia; Rate 62 g/ha, 0 to 100 scale): 5 | Plant response rating, Kochia (kochia; Rate 125 g/ha, 0 to 100 scale): 20 | Plant response rating, Kochia (kochia; [1]): 15 | Plant response rating, Spring Wheat (spring wheat; Rate 62 g/ha, 0 to 100 scale): 0 | Plant response rating, Spring Wheat (spring wheat; Rate 125 g/ha, 0 to 100 scale): 5 | Plant response rating, Spring Wheat (spring wheat; [1]): 10 | Plant response rating, Purple nutsedge (purple nutsedge; Rate 140 g/ha): 0 | Plant response rating, Purple nutsedge (purple nutsedge; Rate 280 g/ha): 0 | Plant response rating, Purple nutsedge (purple nutsedge; Rate 560 g/ha): 10 | Plant response rating, Purple nutsedge (purple nutsedge; Rate 1120 g/ha): 10 | Plant response rating, Redroot pigweed (redroot pigweed; Rate 280 g/ha): 75 | Plant response rating, Redroot pigweed (redroot pigweed; Rate 560 g/ha): 80 | Plant response rating, Redroot pigweed (redroot pigweed; Rate 1120 g/ha): 80 | Plant response rating, Sugar beet (sugar beet; Rate 62 g/ha, 0 to 100 scale): 10 | Plant response rating, Sugar beet (sugar beet; Rate 125 g/ha, 0 to 100 scale): 10 | Plant response rating, Sugar beet (sugar beet; [1]): 40 | Plant response rating Wild poinsettia (wild poinsettia; Rate 140 g/ha): 0 | Plant response rating Wild poinsettia (wild poinsettia; Rate 280 g/ha): 15 | Plant response rating Wild poinsettia (wild poinsettia; Rate 560 g/ha): 40 | Plant response rating Wild poinsettia (wild poinsettia; Rate 1120 g/ha): 80 | Plant response rating, Surinam grass (surinam grass; Rate 140 g/ha): 10 | Plant response rating, Surinam grass (surinam grass; Rate 280 g/ha): 70 | Plant response rating, Surinam grass (surinam grass; Rate 560 g/ha): 80 | Plant response rating, Surinam grass (surinam grass; Rate 1120 g/ha): 95 | Plant response rating, Chickweed (chickweed; Rate 62 g/ha, 0 to 100 scale): 10 | Plant response rating, Chickweed (chickweed; Rate 125 g/ha, 0 to 100 scale): 0 | Plant response rating, Chickweed (chickweed; [1]): 0 | Plant response rating, Deadnettle (deadnettle; [2]): 50 | Plant response rating, Deadnettle (deadnettle; [3]): 60 | Plant response rating, Deadnettle (deadnettle; Rate 250 g/ha, 0 to 100 scale): 85 | Plant response rating E. blacknightsh (eastern black nightshade; Rate 140 g/ha): 50 | Plant response rating E. blacknightsh (eastern black nightshade; Rate 280 g/ha): 50 | Plant response rating E. blacknightsh (eastern black nightshade; Rate 560 g/ha): 70 | Plant response rating E. blacknightsh (eastern black nightshade; Rate 1120 g/ha): 95 | Plant response rating, Wild mustard (wild mustard; [2]): 100 | Plant response rating, Wild mustard (wild mustard; [3]): 85 | Plant response rating, Wild mustard (wild mustard; Rate 250 g/ha, 0 to 100 scale): 100 | Plant response rating Large crabgrass (large crabgrass; Rate 140 g/ha): 70 | Plant response rating Large crabgrass (large crabgrass; Rate 280 g/ha): 85 | Plant response rating Large crabgrass (large crabgrass; Rate 560 g/ha): 95 | Plant response rating Large crabgrass (large crabgrass; Rate 1120 g/ha): 95 | Plant response rating, Lambsquarters (lambsquarters; [2]): 100 | Plant response rating, Lambsquarters (lambsquarters; [3]): 100 | Plant response rating, Lambsquarters (lambsquarters; Rate 250 g/ha, 0 to 100 scale): 100 | Plant response rating, Annual bluegras (annual bluegrass; [2]): 70 | Plant response rating, Annual bluegras (annual bluegrass; [3]): 80 | Plant response rating, Annual bluegras (annual bluegrass; Rate 250 g/ha, 0 to 100 scale): 85 | Plant response rating, Blackgrass (blackgrass; Rate 62 g/ha, 0 to 100 scale): 5 | Plant response rating, Blackgrass (blackgrass; Rate 125 g/ha, 0 to 100 scale): 80 | Plant response rating, Blackgrass (blackgrass; [1]): 85

CCn1c(=O)on(C(=O)N(c2ccc(F)cc2F)C(C)C)c1=O [Compound 116]
Plant response rating, Russian thistle (Russian thistle; Rate 62 g/ha, 0 to 100 scale): 40 | Plant response rating, Russian thistle (Russian thistle; Rate 125 g/ha, 0 to 100 scale): 0 | Plant response rating, Russian thistle (Russian thistle; [1]): 0 | Plant response rating, Russian thistle (Russian thistle; [4]): 0 | Plant response rating, LS canarygrass (littleseed canarygrass; [3]): 70 | Plant response rating, LS canarygrass (littleseed canarygrass; Rate 250 g/ha, 0 to 100 scale): 80 | Plant response rating, LS canarygrass (littleseed canarygrass; [5]): 100 | Plant response rating, Kochia (kochia; Rate 62 g/ha, 0 to 100 scale): 0 | Plant response rating, Kochia (kochia; Rate 125 g/ha, 0 to 100 scale): 0 | Plant response rating, Kochia (kochia; [1]): 0 | Plant response rating, Kochia (kochia; [4]): 0 | Plant response rating, Spring Wheat (spring wheat; Rate 62 g/ha, 0 to 100 scale): 5 | Plant response rating, Spring Wheat (spring wheat; Rate 125 g/ha, 0 to 100 scale): 0 | Plant response rating, Spring Wheat (spring wheat; [1]): 10 | Plant response rating, Spring Wheat (spring wheat; [4]): 10 | Plant response rating, Purple nutsedge (purple nutsedge; Rate 140 g/ha): 0 | Plant response rating, Purple nutsedge (purple nutsedge; Rate 280 g/ha): 0 | Plant response rating, Purple nutsedge (purple nutsedge; Rate 560 g/ha): 10 | Plant response rating, Purple nutsedge (purple nutsedge; Rate 1120 g/ha): 10 | Plant response rating, Redroot pigweed (redroot pigweed; Rate 140 g/ha): 0 | Plant response rating, Redroot pigweed (redroot pigweed; Rate 280 g/ha): 0 | Plant response rating, Redroot pigweed (redroot pigweed; Rate 560 g/ha): 0 | Plant response rating, Redroot pigweed (redroot pigweed; Rate 1120 g/ha): 20 | Plant response rating, Sugar beet (sugar beet; Rate 62 g/ha, 0 to 100 scale): 0 | Plant response rating, Sugar beet (sugar beet; Rate 125 g/ha, 0 to 100 scale): 0 | Plant response rating, Sugar beet (sugar beet; [1]): 0 | Plant response rating, Sugar beet (sugar beet; [4]): 0 | Plant response rating Wild poinsettia (wild poinsettia; Rate 140 g/ha): 0 | Plant response rating Wild poinsettia (wild poinsettia; Rate 280 g/ha): 0 | Plant response rating Wild poinsettia (wild poinsettia; Rate 560 g/ha): 0 | Plant response rating, Surinam grass (surinam grass; Rate 140 g/ha): 0 | Plant response rating, Surinam grass (surinam grass; Rate 280 g/ha): 0 | Plant response rating, Surinam grass (surinam grass; Rate 1120 g/ha): 90 | Plant response rating, Chickweed (chickweed; Rate 62 g/ha, 0 to 100 scale): 0 | Plant response rating, Chickweed (chickweed; Rate 125 g/ha, 0 to 100 scale): 0 | Plant response rating, Chickweed (chickweed; [1]): 20 | Plant response rating, Chickweed (chickweed; [4]): 50 | Plant response rating, Deadnettle (deadnettle; [3]): 95 | Plant response rating, Deadnettle (deadnettle; Rate 250 g/ha, 0 to 100 scale): 80 | Plant response rating, Deadnettle (deadnettle; [5]): 80 | Plant response rating E. blacknightsh (eastern black nightshade; Rate 140 g/ha): 0 | Plant response rating E. blacknightsh (eastern black nightshade; Rate 280 g/ha): 0 | Plant response rating E. blacknightsh (eastern black nightshade; Rate 560 g/ha): 10 | Plant response rating E. blacknightsh (eastern black nightshade; Rate 1120 g/ha): 50 | Plant response rating, Wild mustard (wild mustard; [3]): 75 | Plant response rating, Wild mustard (wild mustard; Rate 250 g/ha, 0 to 100 scale): 85 | Plant response rating, Wild mustard (wild mustard; [5]): 65 | Plant response rating Large crabgrass (large crabgrass; Rate 140 g/ha): 0 | Plant response rating Large crabgrass (large crabgrass; Rate 280 g/ha): 0 | Plant response rating Large crabgrass (large crabgrass; Rate 560 g/ha): 30 | Plant response rating Large crabgrass (large crabgrass; Rate 1120 g/ha): 90 | Plant response rating, Lambsquarters (lambsquarters; [3]): 100 | Plant response rating, Lambsquarters (lambsquarters; Rate 250 g/ha, 0 to 100 scale): 100 | Plant response rating, Lambsquarters (lambsquarters; [5]): 100 | Plant response rating, Annual bluegras (annual bluegrass; [3]): 60 | Plant response rating, Annual bluegras (annual bluegrass; Rate 250 g/ha, 0 to 100 scale): 85 | Plant response rating, Annual bluegras (annual bluegrass; [5]): 100 | Plant response rating, Blackgrass (blackgrass; Rate 62 g/ha, 0 to 100 scale): 0 | Plant response rating, Blackgrass (blackgrass; Rate 125 g/ha, 0 to 100 scale): 40 | Plant response rating, Blackgrass (blackgrass; [1]): 80 | Plant response rating, Blackgrass (blackgrass; [4]): 80
